Experimental data: patent publication US20240140986A1, “SYNTHETIC URSOLIC ACID DERIVATIVES AND METHODS OF USE THEREOF” (REATA PHARMACEUTICALS, INC., priority 2021, published 2024)
Like-named read-outs stand apart in the source and are kept apart here.

How the values were obtained:
[1] = system: Nrf2 / ARE-dependent luciferase in AREc32 reporter cell line; experiment: AREc32 luciferase reporter activation (Nrf2 induction); type: cell-based, human; details: for EC (2-fold): Homo sapiens, Arec32; for Relative Avg AREc32 EC2X Relative to RTA402 (fold): ratio to RTA402
Summary of the method: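 EC2X is the concentration raising luminescence 2-fold above DMSO-treated cells, from a nonlinear-regression dose–response fit. Compounds (0.03–1000 nM) were applied for nineteen hours, starting one day after seeding 20,000 reporter cells per well. Luciferase was read with One-Glo reagent.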

[2] = system: IFNγ-induced NO production in RAW 264.7 cells; experiment: Nitric Oxide Suppression Assay (IFNγ-induced NO, Griess nitrite readout); type: cell-based, mouse; details: for IC50: Mus musculus; for Avg NO IC50 Relative to RTA402 (fold): Table 2, ratio to RTA402
Summary of the method: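 Nitrite, a surrogate for NO, was measured by Griess reagent (525 nm) and quantified from standards by linear regression, expressed as percent of DMSO plus IFNγ control to give IC50. RAW 264.7 cells had 2 h compound pretreatment, then 24 h with 20 ng/mL IFNγ; WST-1 checked viability.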

[3] = Table 2, concentration increasing luminescence 2-fold above vehicle, 19 h treatment, read-out: Avg AREc32 EC2X (nM) (Mean ± SD)
[4] = RAW264.7, Table 2, RAW 264.7 cells, 2 h pretreatment, 20 ng/mL interferon gamma 24 h, read-out: Avg NO IC50 (nM) (Mean ± SD)
[5] = Table 3, oleanolic acid derivative analogs, read-out: Avg ARE EC-2X
[6] = RAW264.7, Table 3, oleanolic acid derivative analogs, read-out: Avg NO IC50

Compound | IC50 [2, 4] [nM] | Avg NO IC50 Relative to RTA402 (fold) [2] | IC50 [2, 6] [nM] | IC50 ([2]; RAW264.7, Table 3, ursolic acid derivatives, read-out: Avg NO IC50 (nM) (Mean ± SD)) | EC (2-fold) [1, 3] [nM] | Relative Avg AREc32 EC2X Relative to RTA402 (fold) ([1]; Table 2) | EC (2-fold) [1, 5] [nM] | EC (2-fold) ([1]; Table 3, ursolic acid derivatives, read-out: Avg ARE EC-2X (nM) (Mean ± SD))
C[C@@H]1[C@H]2[C@H]3C(=O)C=C4[C@@]5(C)C=C(C#N)C(=O)C(C)(C)[C@@H]5CC[C@@]4(C)[C@]3(C)CC[C@@]2(CNS(=O)(=O)C2CC2)CC[C@H]1C [Compound T33] | 6.84 ± 1.59 | 2.32 ± 0.42 fold | – | – | 6.93 ± 1 | 0.621 ± 0.137 | – | –
COC(=O)[C@]12CC[C@@H](C)[C@H](C)[C@H]1[C@H]1C(=O)C[C@@H]3[C@@]4(C)C=C(C#N)C(=O)C(C)(C)[C@@H]4CC[C@@]3(C)[C@]1(C)CC2 [Compound T101] | 102 ± 15 | 67.7 ± 3.62 fold | – | – | 142 ± 29 | 15.8 ± 2.1 | – | –
C[C@@H]1[C@H]2[C@H]3C(=O)C[C@@H]4[C@@]5(C)C=C(C#N)C(=O)C(C)(C)[C@@H]5CC[C@@]4(C)[C@]3(C)CC[C@@]2(CNC(=O)OC(C)(C)C)CC[C@H]1C [Compound T106] | 57.4 ± 15.7 | 37.4 ± 3.76 fold | – | – | 265 ± 21 | 28.2 ± 4.5 | – | –
CC(=N)NOC(=O)[C@]12CC[C@@H](C)[C@H](C)[C@H]1[C@H]1C(=O)C=C3[C@@]4(C)C=C(C#N)C(=O)C(C)(C)[C@@H]4CC[C@@]3(C)[C@]1(C)CC2 [Compound T107] | 17.7 ± 6.9 | 7.07 ± 1.53 fold | – | – | 12.9 ± 1.5 | 1.17 ± 0.25 | – | –
C[C@@H]1[C@H]2[C@H]3C(=O)C=C4[C@@]5(C)C=C(C#N)C(=O)C(C)(C)[C@@H]5CC[C@@]4(C)[C@]3(C)CC[C@@]2(CNC(=O)C(C)(F)F)CC[C@H]1C [Compound T29] | 4.21 ± 1.75 | 1.47 ± 0.32 fold | – | – | 3.88 ± 1.19 | 0.317 ± 0.086 | – | –
C[C@@H]1[C@H]2[C@H]3C(=O)C[C@@H]4[C@@]5(C)C=C(C#N)C(=O)C(C)(C)[C@@H]5CC[C@@]4(C)[C@]3(C)CC[C@@]2(CCC(=O)N2CCC2)CC[C@H]1C [Compound T105] | 52.4 ± 13.8 | 36.7 ± 17^ fold | – | – | 103 ± 37 | 10.7 ± 3.3 | – | –
Cc1nc([C@]23CCC(C)(C)C[C@H]2[C@H]2C(=O)C=C4[C@@]5(C)C=C(C#N)C(=O)C(C)(C)[C@@H]5CC[C@@]4(C)[C@]2(C)CC3)no1 [CC82, reference compound] | – | – | 3.8 | – | – | – | 22.1 | –
C[C@@H]1[C@H]2[C@H]3C(=O)C=C4[C@@]5(C)C=C(C#N)C(=O)C(C)(C)[C@@H]5CC[C@@]4(C)[C@]3(C)CC[C@@]2(CNC(=O)N2CCC2)CC[C@H]1C [Compound T27] | 4.03 ± 1.66 | 1.15 ± 0.40 fold | – | – | 1.62 ± 0.22 | 0.144 ± 0.008 | – | –
CC(=O)N(C)C[C@]12CCC(C)(C)C[C@H]1[C@H]1C(=O)C=C3[C@@]4(C)C=C(C#N)C(=O)C(C)(C)[C@@H]4CC[C@@]3(C)[C@]1(C)CC2 [CC35, reference compound] | – | – | 0.8 | – | – | – | 6.81 | –
C[C@@H]1[C@H]2[C@H]3C(=O)C=C4[C@@]5(C)C=C(C#N)C(=O)C(C)(C)[C@@H]5CC[C@@]4(C)[C@]3(C)CC[C@@]2(CNC(=O)C2CCC2)CC[C@H]1C [Compound T25] | 5.11 ± 1.69 | 1.49 ± 0.35 fold | – | – | 2.88 ± 0.13 | 0.259 ± 0.036 | – | –
C[C@@H]1[C@H]2[C@H]3C(=O)C=C4[C@@]5(C)C=C(C#N)C(=O)C(C)(C)[C@@H]5CC[C@@]4(C)[C@]3(C)CC[C@@]2(CCC(=O)N2CCC2)CC[C@H]1C [Compound T80] | 2.76 ± 1.02 | 1.09 ± 0.03 fold | – | – | 3.72 ± 0.14 | 0.311 ± 0.023 | – | –
CC1(C)CC[C@]2(CN)CC[C@]3(C)[C@H](C(=O)C=C4[C@@]5(C)C=C(C#N)C(=O)C(C)(C)[C@@H]5CC[C@]43C)[C@@H]2C1 [CC21, reference compound] | – | – | 3.2 | – | – | – | 15.8 | –
C[C@H]1[C@H](C)CC[C@]2(Cn3cncn3)CC[C@]3(C)C(O)(C(=O)C=C4[C@@]5(C)C=C(C#N)C(=O)C(C)(C)[C@@H]5CC[C@]43C)[C@H]12 (stereo partly shown) [Compound T48] | 13.8 ± 1.5 | 3.66 ± 1.49 fold | – | – | 7.18 ± 1.2 | 0.602 ± 0.010 | – | –
CC1(C)CC[C@]2(N3CCC3=O)CC[C@]3(C)[C@H](C(=O)C=C4[C@@]5(C)C=C(C#N)C(=O)C(C)(C)[C@@H]5CC[C@]43C)[C@@H]2C1 [CC74, reference compound] | – | – | 4.3 | – | – | – | 36.1 | –

Second part, led by results:

IC50 [2, 4] [nM] | Avg NO IC50 Relative to RTA402 (fold) [2] | IC50 [2, 6] [nM] | IC50 ([2]; RAW264.7, Table 3, ursolic acid derivatives, read-out: Avg NO IC50 (nM) (Mean ± SD)) | Compound | EC (2-fold) [1, 3] [nM] | Relative Avg AREc32 EC2X Relative to RTA402 (fold) ([1]; Table 2) | EC (2-fold) [1, 5] [nM] | EC (2-fold) ([1]; Table 3, ursolic acid derivatives, read-out: Avg ARE EC-2X (nM) (Mean ± SD))
26.8 ± 4.7 | 9.84 ± 1.92 fold | – | – | CNC(=O)[C@]12CC[C@@H](C)[C@H](C)[C@H]1[C@H]1C(=O)C=C3[C@@]4(C)C=C(C#N)C(=O)C(C)(C)[C@@H]4CC[C@@]3(C)[C@]1(C)CC2 [Compound T85] | 19 ± 3.5 | 1.63 ± 0.17 | – | –
23 ± 4.1 | 13.7 ± 5.76 fold | – | – | CC(=O)N[C@]12CC[C@@H](C)[C@H](C)[C@H]1[C@H]1C(=O)C=C3[C@@]4(C)C=C(C#N)C(=O)C(C)(C)[C@@H]4CC[C@@]3(C)[C@]1(C)CC2 [Compound T18] | 27.3 ± 5.8 | 1.97 ± 0.24 | – | –
5.58 ± 0.32 | 3.69 ± 0.82 fold | – | 5.58 ± 0.32 | Cc1nc([C@]23CC[C@@H](C)[C@H](C)[C@H]2[C@H]2C(=O)C=C4[C@@]5(C)C=C(C#N)C(=O)C(C)(C)[C@@H]5CC[C@@]4(C)[C@]2(C)CC3)no1 [Compound T82] | 10 ± 3 | 1.01 ± 0.11 | – | 10 ± 3
5.34 ± 1.15 | 2.52 ± 1.11 fold | – | – | CCS(=O)(=O)NC[C@]12CC[C@@H](C)[C@H](C)[C@H]1[C@H]1C(=O)C=C3[C@@]4(C)C=C(C#N)C(=O)C(C)(C)[C@@H]4CC[C@@]3(C)[C@]1(C)CC2 [Compound T32] | 4.2 ± 1.3 | 0.399 ± 0.111 | – | –
8.75 ± 4.81 | 2.31 ± 0.20 fold | – | – | C[C@@H]1[C@H]2[C@H]3C(=O)C=C4[C@@]5(C)C=C(C#N)C(=O)C(C)(C)[C@@H]5CC[C@@]4(C)[C@]3(C)CC[C@@]2(CCC(=O)O)CC[C@H]1C [Compound T77] | 3.16 ± 1.11 | 0.263 ± 0.085 | – | –
4.43 ± 2.68 | 2.75 ± 1.67 fold | – | – | C[C@@H]1[C@H]2[C@H]3C(=O)C=C4[C@@]5(C)C=C(C#N)C(=O)C(C)(C)[C@@H]5CC[C@@]4(C)[C@]3(C)CC[C@@]2(C=O)CC[C@H]1C [Compound T83] | 2.37 ± 0.33 | 0.294 ± 0.048 | – | –
19.6 ± 6.1 | 8.82 ± 3.07 fold | – | – | C[C@@H]1[C@H]2[C@H]3C(=O)C=C4[C@@]5(C)C=C(C#N)C(=O)C(C)(C)[C@@H]5CC[C@@]4(C)[C@]3(C)CC[C@@]2(C(=O)N2CCC2)CC[C@H]1C [Compound T70] | 21.6 ± 1.3 | 1.78 ± 0.34 | – | –
3.76 ± 1.35 | 2.53 ± 0.74 fold | – | – | Cc1noc([C@]23CC[C@@H](C)[C@H](C)[C@H]2[C@H]2C(=O)C=C4[C@@]5(C)C=C(C#N)C(=O)C(C)(C)[C@@H]5CC[C@@]4(C)[C@]2(C)CC3)n1 [Compound T1] | 8.44 ± 1.56 | 0.744 ± 0.121 | – | –
20.1 ± 6 | 8.81 ± 0.63 fold | – | – | CO/N=C/[C@]12CC[C@@H](C)[C@H](C)[C@H]1[C@H]1C(=O)C=C3[C@@]4(C)C=C(C#N)C(=O)C(C)(C)[C@@H]4CC[C@@]3(C)[C@]1(C)CC2 [Compound T57] | 34.1 ± 4.98 | 2.73 ± 0.34 | – | –
58.4 ± 9.1 | 23.3 ± 10.3 fold | – | – | C[C@@H]1[C@H]2[C@H]3C(=O)C=C4[C@@]5(C)C=C(C#N)C(=O)C(C)(C)[C@@H]5CC[C@@]4(C)[C@]3(C)CC[C@@]2(n2cc(Br)cn2)CC[C@H]1C [Compound T63] | 76 ± 9.6 | 6.8 ± 1.1 | – | –
14.8 ± 2.8 | 9.13 ± 1.38 fold | – | – | COC(=O)CC[C@]12CC[C@@H](C)[C@H](C)[C@H]1[C@H]1C(=O)C=C3[C@@]4(C)C=C(C#N)C(=O)C(C)(C)[C@@H]4CC[C@@]3(C)[C@]1(C)CC2 [Compound T76] | 8.7 ± 0.63 | 1.1 ± 0.3 | – | –
